Experimental data as given in ChEMBL document CHEMBL4342421, “Current scenario of tetrazole hybrids for antibacterial activity” (Eur J Med Chem, 2019).
In brackets after ≈: the same amount, converted by molar mass.

Columns and labels:
Bacillus cereus [1] = assay: Antimicrobial activity against Bacillus cereus assessed as zone of inhibition at 250 ug/ml; assay type: functional; conditions: read-out: IZ
Escherichia coli [2] = assay: Antimicrobial activity against Escherichia coli assessed as zone of inhibition at 250 ug/ml; assay type: functional; conditions: read-out: IZ
Bacillus cereus [3] = assay: Antimicrobial activity against Bacillus cereus; assay type: functional
Pseudomonas aeruginosa [4] = assay: Antimicrobial activity against Pseudomonas aeruginosa assessed as zone of inhibition at 250 ug/ml; assay type: functional; conditions: read-out: IZ
Staphylococcus aureus [5] = assay: Antimicrobial activity against Staphylococcus aureus assessed as zone of inhibition at 250 ug/ml; assay type: functional; conditions: read-out: IZ
Candida albicans [6] = assay: Antifungal activity against Candida albicans; assay type: functional
Staphylococcus aureus [7] = assay: Antimicrobial activity against Staphylococcus aureus; assay type: functional
Aspergillus niger [8] = assay: Antifungal activity against Aspergillus niger; assay type: functional
Escherichia coli [9] = assay: Antimicrobial activity against Escherichia coli; assay type: functional
Pseudomonas aeruginosa [10] = assay: Antimicrobial activity against Pseudomonas aeruginosa; assay type: functional
Aspergillus niger [11] = assay: Antifungal activity against Aspergillus niger assessed as zone of inhibition at 250 ug/ml; assay type: functional; conditions: read-out: IZ
Candida albicans [12] = assay: Antifungal activity against Candida albicans assessed as zone of inhibition at 250 ug/ml; assay type: functional; conditions: read-out: IZ
Escherichia coli [13] = assay: Antimicrobial activity against Escherichia coli assessed as zone of inhibition at 50 ug/ml; assay type: functional; conditions: read-out: IZ
Candida albicans [14] = assay: Antifungal activity against Candida albicans assessed as zone of inhibition at 50 ug/ml; assay type: functional; conditions: read-out: IZ
Aspergillus niger [15] = assay: Antifungal activity against Aspergillus niger assessed as zone of inhibition at 50 ug/ml; assay type: functional; conditions: read-out: IZ
Staphylococcus aureus [16] = assay: Antimicrobial activity against Staphylococcus aureus assessed as zone of inhibition at 50 ug/ml; assay type: functional; conditions: read-out: IZ
Salmonella typhimurium = assay: Antimicrobial activity against Salmonella typhimurium; assay type: functional, Salmonella enterica subsp. enterica serovar Typhimurium; conditions: Salmonella enterica
Bacillus subtilis [17] = assay: Antimicrobial activity against Bacillus subtilis; assay type: functional
Pseudomonas aeruginosa [18] = assay: Antimicrobial activity against Pseudomonas aeruginosa assessed as zone of inhibition at 50 ug/ml; assay type: functional; conditions: read-out: IZ
Bacillus subtilis [19] = assay: Antimicrobial activity against Bacillus subtilis assessed as zone of inhibition at 50 ug/ml; assay type: functional; conditions: read-out: IZ
Aspergillus fumigatus = assay: Antifungal activity against Aspergillus fumigatus assessed as zone of inhibition at 50 ug/ml; assay type: functional; conditions: read-out: IZ

| MIC (Bacillus cereus [3]) | MIC (Candida albicans [6]) | MIC (Staphylococcus aureus [7]) | MIC (Aspergillus niger [8]) | MIC (Escherichia coli [9]) | MIC (Pseudomonas aeruginosa [10]) | Compound | zone of inhibition at 250 µg/mL (Bacillus cereus [1]) | zone of inhibition at 250 µg/mL (Escherichia coli [2]) | zone of inhibition at 250 µg/mL (Pseudomonas aeruginosa [4]) | zone of inhibition at 250 µg/mL (Staphylococcus aureus [5]) | zone of inhibition at 250 µg/mL (Aspergillus niger [11]) | zone of inhibition at 250 µg/mL (Candida albicans [12]) | zone of inhibition at 50 µg/mL (Escherichia coli [13]) | zone of inhibition at 50 µg/mL (Candida albicans [14]) | zone of inhibition at 50 µg/mL (Aspergillus niger [15]) | zone of inhibition at 50 µg/mL (Staphylococcus aureus [16]) | also measured |
| --- | --- | --- | --- | --- | --- | --- | --- | --- | --- | --- | --- | --- | --- | --- | --- | --- | --- |
| 50 to 100 µg/mL (≈ 135 to 271 µM) | 50 to 100 µg/mL (≈ 135 to 271 µM) | 50 to 100 µg/mL (≈ 135 to 271 µM) | 50 to 100 µg/mL (≈ 135 to 271 µM) | 50 to 100 µg/mL (≈ 135 to 271 µM) | 50 to 100 µg/mL (≈ 135 to 271 µM) | COc1cc(-c2nnnn2-c2nc3ccccc3s2)cc(OC)c1OC | 16 to 26 mm | 16 to 26 mm | 16 to 26 mm | 16 to 26 mm | 16 to 26 mm | 16 to 26 mm | – | – | – | – | – |
| – | – | – | – | – | – | CN(C)c1ccc(/C=C/C(=O)n2nnnc2-c2ccccc2)cc1 | – | – | – | – | – | – | 8 to 15 mm | 8 to 15 mm | 8 to 15 mm | 8 to 15 mm | – |
| – | – | – | – | 30 µg/mL (≈ 92.8 µM) | – | O=C(N[C@H](CO)[C@H](O)c1ccc([N+](=O)[O-])cc1)C(Cl)Cl [CHLORAMPHENICOL] | – | – | – | – | – | – | – | – | – | – | MIC (Salmonella typhimurium): 30 µg/mL (≈ 92.8 µM); MIC (Bacillus subtilis [17]): 30 µg/mL (≈ 92.8 µM) |
| 50 to 100 µg/mL (≈ 170 to 341 µM) | 50 to 100 µg/mL (≈ 170 to 341 µM) | 50 to 100 µg/mL (≈ 170 to 341 µM) | 50 to 100 µg/mL (≈ 170 to 341 µM) | 50 to 100 µg/mL (≈ 170 to 341 µM) | 50 to 100 µg/mL (≈ 170 to 341 µM) | Cc1ccc(-c2nnnn2-c2nc3ccccc3s2)cc1 | 16 to 26 mm | 16 to 26 mm | 16 to 26 mm | 16 to 26 mm | 16 to 26 mm | 16 to 26 mm | – | – | – | – | – |
| 50 to 100 µg/mL (≈ 169 to 339 µM) | 50 to 100 µg/mL (≈ 169 to 339 µM) | 50 to 100 µg/mL (≈ 169 to 339 µM) | 50 to 100 µg/mL (≈ 169 to 339 µM) | 50 to 100 µg/mL (≈ 169 to 339 µM) | 50 to 100 µg/mL (≈ 169 to 339 µM) | Oc1ccc(-c2nnnn2-c2nc3ccccc3s2)cc1 | 16 to 26 mm | 16 to 26 mm | 16 to 26 mm | 16 to 26 mm | 16 to 26 mm | 16 to 26 mm | – | – | – | – | – |
| – | – | – | – | – | – | Brc1cccc(-c2nnnn2-c2ccccn2)c1 | – | – | – | – | – | – | 10 to 24 mm | 10 to 24 mm | – | 10 to 24 mm | zone of inhibition at 50 µg/mL (Pseudomonas aeruginosa [18]): 10 to 24 mm; zone of inhibition at 50 µg/mL (Bacillus subtilis [19]): 10 to 24 mm; zone of inhibition at 50 µg/mL (Aspergillus fumigatus): 10 to 24 mm |
| – | – | – | – | – | – | O=C(/C=C/c1ccccc1[N+](=O)[O-])n1nnnc1-c1ccccc1 | – | – | – | – | – | – | 8 to 15 mm | 8 to 15 mm | 8 to 15 mm | 8 to 15 mm | – |
| – | – | – | – | – | – | O=C(/C=C/c1ccc([N+](=O)[O-])cc1)n1nnnc1-c1ccccc1 | – | – | – | – | – | – | 8 to 15 mm | 8 to 15 mm | 8 to 15 mm | 8 to 15 mm | – |
